Results reported in patent US20260306488A1, “FUNCTIONAL PROTECTIVE AGENT FOR ORGAN OR TISSUE” (TOHOKU UNIVERSITY, priority 2023, published 2026).

Legend:
[1] = system: adenine-fed renal failure model mouse; experiment: Plasma markers (creatinine, ALT, total cholesterol) in adenine-fed renal failure model mouse; assay type: in vivo, mouse (male C57BL/6); details: plasma samples after 2-week feeding
Method: (§1) In order to confirm that a present compound has an effect of protecting kidney function and liver function in a renal failure model, 2,5-diketopiperazine (cGP; see Table 1) encompassed in the present compound was used for performing analysis in which the cGP is administered to a model mouse with chronic renal failure induced by feeding adenine (hereinafter referred to as the “adenine-fed renal failure model mouse”) to analyze the blood concentration of a uremic substance (creatinine), that is, an indicator of kidney function, and a ratio of renal tubules, as well as to analyze blood concentrations of three liver function markers (ALT, AST, and γGTP) and two lipids (total cholesterol and TG). The adenine-fed renal failure model mouse is a mouse that develops kidney damage because fed adenine crystallizes as insoluble 2,8-dihydroxyadenine in the renal tubules (Cozzolino, M. et al. Kidney Int. 64, 441-450 (2003), Tamagaki, K. et al. Nephrol. Dial. Transplant 21, 651-659 (2006)).
(§2) The analysis using an adenine-fed renal failure model mouse was performed according to the following procedures through:
(§3) [1] 8-Week old male C57BL/6 mice (purchased from Japan CLEA) were grouped into a normal diet group (n=6) to be fed a normal diet (CE-2, manufactured by Japan CLEA), and an adenine-fed group (n=12) to be fed the normal diet containing 0.2% adenine (manufactured by Wako).
[2] After feeding the mice for 6 weeks, the adenine-fed group was grouped into an adenine-fed control group (n=6) to be fed the normal diet, and an adenine-fed cGP group (n=6) to be fed the normal diet containing cGP. The normal diet containing cGP was prepared by mixing cGP (manufactured by Bachem) with the normal diet to a final concentration of 0.0025%.
[3] After feeding the mice for 2 weeks, blood samples were harvested from each of the three groups (the normal diet group, the adenine-fed control group, and the adenine-fed cGP group) to prepare plasma samples (referred to as “plasma samples after 2-week feeding”) according to a usual method.
[4] […]

[2] = system: diabetes model mouse (db/db mouse); experiment: Plasma creatinine, phenyl sulfate and Ac6Lys in diabetes model mouse; assay type: in vivo, mouse (BKS-db/db)
Method: (§4) Next, in order to confirm that the present compound protects kidney function and liver function in a diabetes model, cGP was administered to a diabetes model mouse (db/db mouse) to analyze blood concentrations of two uremic substances (creatinine and phenyl sulfate), as well as a blood concentration of a factor leading to renal failure in a patient with type 1 diabetes (N6-acetyllysine [Ac6Lys]), and additionally, pathological tissues of liver and blood concentrations of three liver function markers (ALT, AST, and γGTP) and two lipids (total cholesterol and TG) were analyzed.
(§5) The analysis using a diabetes model mouse was performed according to the following procedures through:
[1] Wild-type mice (BKS-m+/m+ mice, purchased from Japan CLEA) having been fed a normal diet (CE-2, manufactured by Japan CLEA) were grouped into a wild-type normal diet group (n=5) to be fed the normal diet, and a wild-type cGP group (n=4) to be fed the normal diet containing cGP. Besides, diabetes model mice (BKS-db/db mice; purchased from Japan CLEAR) having been fed the normal diet were grouped into a diabetes model normal diet group (n=4) to be fed the normal diet, and a diabetes model cGP group (n=4) to be fed the normal diet containing cGP. Blood samples were harvested from the diabetes model cGP group, and plasma samples (referred to as the “plasma samples after 0-week feeding”) were prepared according to a usual method.
[2] After feeding the mice for 6 weeks, blood samples were harvested from the above four groups (the wild-type normal diet group, the wild-type cGP group, the diabetes model normal diet group, and the diabetes model cGP group), plasma samples (referred to as the “plasma samples after 6-week feeding”) were prepared according to a usual method, and then, liver tissues were harvested, fixed in 10% neutral-buffered formalin, and embedded in paraffin, and the resultant paraffin-embedded liver tissues were sliced to prepare liver tissue sections.
[3] The thus obtained “plasma samples after 0-week feeding” and “plasma samples after 6-week feeding” were used to measure blood concentrations of the three substances (creatinine, phenyl sulfate, and Ac6Lys) (see FIGS. 5 and 6), and blood concentrations of three liver function markers (ALT, AST, and γGTP) and two lipids (total cholesterol and TG) by mass spectrometry using LC-MS/MS (manufactured by Shimadzu Corporation). Besides, the liver tissue sections prepared as described above were used to perform analysis by Hematoxylin and Eosin (HE) staining method according to a usual method (see FIG. 4).

[3] = system: adenine-fed renal failure model mouse; experiment: Kidney tissue analysis by Masson's Trichrome Staining in adenine-fed renal failure model mouse (ratio of renal tubules); assay type: in vivo, mouse (male C57BL/6); details: adenine-fed cGP group (0.0025% cGP in diet) vs adenine-fed control group; FIG. 2A, Dunnett's test p<0.01; FIG. 2 legend says after 2-week feeding, method says tissue harvested at 3 weeks
Method: as §1, §2, §3
[2] […]

[4] = system: diabetes model mouse (db/db mouse); experiment: Plasma uremic substances (m1A and TMAO) in diabetes model mouse; assay type: in vivo, mouse (BKS-db/db); details: diabetes model cGP group (cGP in diet) vs diabetes model normal diet group, after 5-week feeding, Unpaired t-test p<0.01
Method: Next, in order to confirm that the present compound reduces chronic inflammation and resulting cellular damage, and prevents vascular complication in a diabetes model, cGP was administered to a diabetes model mouse (db/db mouse) to analyze blood concentrations of two uremic substances (1-methyladenosine [m1A] and trimethylamine-N-oxide [TMAO]).
as §5
[1] Diabetes model mice (BKS-db/db mice, purchased from Japan CLEA) having been fed a normal diet (CE-2, manufactured by Japan CLEA) were grouped into a diabetes model normal diet group (n=10) to be fed the normal diet, and a diabetes model cGP group (n=10) to be fed the normal diet containing cGP.
[2] After feeding the mice for 5 weeks, blood samples were harvested from the above two groups (the diabetes model normal diet group, and the diabetes model cGP group), and plasma samples were prepared according to a usual method.
[3] The thus prepared plasma samples were used to measure blood concentrations of two uremic substances (m1A and TMAO) by mass spectrometry using LC-MS/MS (manufactured by Shimadzu Corporation) (see FIG. 7).

[5] = system: diabetes model mouse (db/db mouse); experiment: Liver tissue analysis by HE staining in diabetes model mouse; assay type: in vivo, mouse (BKS-db/db); details: diabetes model cGP group (cGP in diet) vs diabetes model normal diet group; after 6-week feeding; FIG. 4
Method: as §4, §5
[1] Wild-type mice (BKS-m+/m+ mice, purchased from Japan CLEA) having been fed a normal diet (CE-2, manufactured by Japan CLEA) were grouped into a wild-type normal diet group (n=5) to be fed the normal diet, and a wild-type cGP group (n=4) to be fed the normal diet containing cGP. Besides, diabetes model mice (BKS-db/db mice; purchased from Japan CLEAR) having been fed the normal diet were grouped into a diabetes model normal diet group (n=4) to be fed the normal diet, and a diabetes model cGP group (n=4) to be fed the normal diet containing cGP. […]

SMILES: O=C1NCC(=O)N2CCCC12 (centres unmarked) [cGP, cyclo-glycyl-proline]
- ALT concentration in plasma ([1]; adenine-fed cGP group (0.0025% cGP in diet) vs adenine-fed control group, FIG. 3A, Dunnett's test p<0.05): significantly decreased
- total cholesterol concentration in plasma ([1]; adenine-fed cGP group (0.0025% cGP in diet) vs adenine-fed control group, FIG. 3B, Dunnett's test p<0.05): significantly decreased
- creatinine concentration in plasma ([1]; adenine-fed cGP group (normal diet containing 0.0025% cGP) vs adenine-fed control group, FIG. 1, Dunnett's test): significantly decreased
- creatinine concentration in plasma ([2]; diabetes model cGP group (cGP in diet) vs diabetes model normal diet group, plasma samples after 6-week feeding, FIG. 5, Dunnett's test): significantly decreased
- blood concentration of creatinine, week 6 vs week 0 ([2]; diabetes model cGP group (cGP in diet), week 6 after feeding compared to week 0, FIG. 6A, Paired t-test p<0.05): significantly lower
- blood concentration of phenyl sulfate, week 6 vs week 0 ([2]; diabetes model cGP group (cGP in diet), week 6 after feeding compared to week 0, FIG. 6B, Paired t-test p<0.05): significantly lower
- blood concentration of N6-acetyllysine (Ac6Lys), week 6 vs week 0 ([2]; diabetes model cGP group (cGP in diet), week 6 after feeding compared to week 0, FIG. 6C, Paired t-test p<0.05): significantly lower
- ratio of renal tubules in the renal cortex [3]: significantly increased
- m1A (1-methyladenosine) concentration in plasma ([4]; FIG. 7A): significantly reduced
- TMAO (trimethylamine-N-oxide) concentration in plasma ([4]; FIG. 7B): significantly reduced
- fat droplets in the liver [5]: reduced
